Measurements from US9029409B2, “Isoxazolines as therapeutic agents” (AbbVie Inc., priority 2011, dated 2015).

molecular target: T1, recombinant human MMP13 catalytic domain (CD) (Homo sapiens, UniProt P45452); assay: MMP-13 catalytic domain FRET enzyme assay; format: biochemical; conditions: recombinant human MMP-13 catalytic domain
T1 construct: catalytic domain (CD) construct encompassing residues 20-274 (SWISS-PROT P45452); made in house
In short: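 Human MMP-13 catalytic domain (res 20-274, E. coli-expressed), 0.4 nM, cleaving FRET peptide (0.25 μM) in Tris pH 7.5/CaCl2/NaCl/Brij 35, 5% DMSO, 60 min RT; EDTA-quenched, fluorescence 485/535 nm. IC50 from sigmoidal fit of % inhibition. Some compounds also run on APMA-activated full-length MMP13 (2 nM).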

Compound | IC50
COc1cc(CNC(=O)c2cc(C3=NOC(c4ccc(CN5CCSCC5)cc4)C3)nc(C)n2)ccc1F (stereo not shown) | < 10 nM
COc1cc(CNC(=O)c2cc(C3=NOC(c4ccn(CC(=O)N(C)C)c(=O)c4)C3)nc(C)n2)ccc1F (stereo not shown) | 10 to 100 nM
COCC(=O)N1CCC(C2CC(c3cc(C(=O)NCc4ccc(F)c(OC)c4)nc(C)n3)=NO2)CC1 (stereo not shown) | 10 to 100 nM
Cc1nc(C(=O)NCc2ccc(F)c(Cl)c2)cc(C2=NO[C@@H]([C@H]3CO[C@H](CO)CO3)C2)n1 [drawing 1070] | > 1000 nM
CC(=O)N[C@H]1CC[C@H]([C@@H]2CC(c3cc(C(=O)NCc4ccc(F)c(C)c4)nc(C)n3)=NO2)CC1 | < 10 nM
COc1cc(CNC(=O)c2cc(C3=NOC(c4ccc(=O)n(CC(=O)N(C)C)c4)C3)nc(C)n2)ccc1F (stereo not shown) | 10 to 100 nM
Cc1nc(C(=O)NCc2ccc(F)c(C)c2)cc(C2=NOC(C3CCN(C(=O)CO)CC3)C2)n1 (stereo not shown) | 10 to 100 nM
COc1ccc(CNC(=O)c2cc(C3=NO[C@H]([C@H]4CO[C@@H](CO)CO4)C3)nc(C)n2)cc1 [drawing 922] | > 1000 nM
Cc1nc(C(=O)NCc2ccc(F)cc2)cc(C2=NOC(c3ccccn3)C2)n1 (stereo not shown) | 10 to 100 nM
CC(=O)N1CCC(C2CC(c3cc(C(=O)NCc4ccc(F)c(Cl)c4)nc(C)n3)=NO2)CC1 (stereo not shown) | 10 to 100 nM
COc1cc(CNC(=O)c2cc(C3=NO[C@H]([C@H]4CO[C@H](CS(C)(=O)=O)CO4)C3)nc(C)n2)ccc1F | 10 to 100 nM
COc1cc(CNC(=O)c2cc(C3=NOC(C(=O)N4CCCC4)C3)nc(C)n2)ccc1F (stereo not shown) | > 1000 nM
COc1cc(CNC(=O)c2cc(C3=NOC([C@H]4CC[C@H](CNC(C)=O)CC4)C3)nc(C)n2)ccc1F (stereo partly shown) | < 10 nM
COc1ccc(CNC(=O)c2cc(C3=NOC(c4ccc(N5CCOCC5)cc4)C3)nc(C)n2)cc1 (stereo not shown) | 10 to 100 nM
COc1cc(CNC(=O)c2cc(C3=NOC(c4ccn(CC(=O)N(C)OC)c(=O)c4)C3)nc(C)n2)ccc1F (stereo not shown) | 10 to 100 nM
COc1cc(CNC(=O)c2cc(C3CC(c4ccccc4)=NO3)nc(C)n2)ccc1F (stereo not shown) | 10 to 100 nM
COc1ccc(CNC(=O)c2cc(C3=NO[C@@H]([C@H]4CO[C@H](CO)CO4)C3)nc(C)n2)cc1 | > 1000 nM
Cc1nc(C(=O)NCc2ccc3c(c2)NC(=O)CO3)cc(C2=NO[C@H]([C@H]3CO[C@H](CO)CO3)C2)n1 | < 10 nM
COc1cc(CNC(=O)c2cc(C3=NOC(c4ccc(C(=O)NCCO)cc4)C3)nc(C)n2)ccc1F (stereo not shown) | 10 to 100 nM
COc1cc(CNC(=O)c2cc(C3=NOC(C4CCN(S(=O)(=O)c5c(C)noc5C)CC4)C3)nc(C)n2)ccc1F (stereo not shown) | < 10 nM
Cc1nc(C(=O)NCc2cccc(F)c2)cc(C2=NO[C@H]([C@H]3CO[C@H](CO)CO3)C2)n1 | > 1000 nM
COc1ccc(CNC(=O)c2cc(C3=NOC(c4ccc(CO)cc4)C3)nc(C)n2)cc1 (stereo not shown) | 10 to 100 nM
COc1cc(CNC(=O)c2cc(C3=NOC(c4cc(Cl)c(=O)n(C5CC5)c4)C3)nc(C)n2)ccc1F (stereo not shown) | < 10 nM
COc1cc(CNC(=O)c2cc(C3=NOC(c4ccc(C(N)=O)nn4)C3)nc(C)n2)ccc1F (stereo not shown) | 10 to 100 nM
CC(=O)N[C@H]1CC[C@H](C2CC(c3cc(C(=O)NCc4ccc(F)c(Cl)c4)nc(C)n3)=NO2)CC1 (stereo partly shown) | < 10 nM
Cc1nc(C(=O)NCc2ccc(F)c(C)c2)cc(C2=NOC([C@H]3CC[C@H](NC(=O)[C@H](C)O)CC3)C2)n1 (stereo partly shown) | < 10 nM

Compound | IC50
CNC(=O)Cn1cc([C@@H]2CC(c3cc(C(=O)NCc4ccc(F)c(OC)c4)nc(C)n3)=NO2)ccc1=O | < 10 nM
COc1ccc(CNC(=O)c2cc(C3=NOC(c4ccc(OC)cc4)C3)ccn2)cc1 (stereo not shown) | 100 to 1000 nM
COc1cc(CNC(=O)c2cc(C3=NOC(c4ccn(CC(=O)NC(C)C)c(=O)c4)C3)nc(C)n2)ccc1F (stereo not shown) | 10 to 100 nM
Cc1nc(C(=O)NCc2ccc3c(c2)NC(=O)CO3)cc(C2=NO[C@@H]([C@H]3CC[C@H](NC(=O)[C@H](C)O)CC3)C2)n1 | < 10 nM
COc1ccc(CNC(=O)c2cc(C3=NOC(c4ccccc4)C3)nc(C)n2)cc1 (stereo not shown) | 10 to 100 nM
CC(=O)N1CCC(C2CC(c3cc(C(=O)NCc4ccc(F)c(C)c4)nc(C)n3)=NO2)CC1 (stereo not shown) | 10 to 100 nM
CC(=O)N[C@H]1CC[C@H]([C@@H]2CC(c3cc(C(=O)NCc4ccc5c(c4)NC(=O)CO5)nc(C)n3)=NO2)CC1 | < 10 nM
COc1cc(CNC(=O)c2cc(C3=NOC(c4ccc(=O)n(CC(=O)NC5CC5)c4)C3)nc(C)n2)ccc1F (stereo not shown) | < 10 nM
Cc1nc(C(=O)NCc2ccc(F)c(F)c2)cc(C2=NOC(c3ccccn3)C2)n1 (stereo not shown) | 10 to 100 nM
Cc1nc(C(=O)NCc2ccc(F)cc2)cc(C2=NO[C@@H]([C@H]3CO[C@H](CO)CO3)C2)n1 | > 1000 nM
Cc1nc(C(=O)NCc2ccc3c(c2)NC(=O)CO3)cc(C2=NOC([C@H]3CC[C@H](NC(=O)[C@H](C)O)CC3)C2)n1 (stereo partly shown) | < 10 nM
Cc1nc(C(=O)NCc2ccc(F)c(Cl)c2)cc(C2=NO[C@H]([C@H]3CO[C@@H](CO)CO3)C2)n1 [drawing 925] | 10 to 100 nM
Cc1nc(C(=O)NCc2ccc(F)c(Cl)c2)cc(C2=NO[C@@H]([C@H]3CC[C@H](NC(=O)[C@H](C)O)CC3)C2)n1 | 10 to 100 nM
COc1cc(CNC(=O)c2cc(C3=NO[C@@H]([C@H]4CC[C@H](NC(=O)[C@H](C)O)CC4)C3)nc(C)n2)ccc1F | 10 to 100 nM
COc1cc(CNC(=O)c2cc(C3=NOC(C4CCN(S(=O)(=O)C(C)C)CC4)C3)nc(C)n2)ccc1F (stereo not shown) | < 10 nM
COc1cc(CNC(=O)c2cc(C3=NO[C@@H]([C@H]4CO[C@H](CO)CO4)C3)nc(C)n2)ccc1F [drawing 1055] | 100 to 1000 nM
COc1cc(CNC(=O)c2cc(C3=NOC(c4ccc(S(C)(=O)=O)cn4)C3)nc(C)n2)ccc1F (stereo not shown) | < 10 nM
Cc1nc(C(=O)NCc2ccc(=O)n(C)c2)cc(C2=NO[C@H]([C@H]3CO[C@H](CO)CO3)C2)n1 | 10 to 100 nM
COc1cc(CNC(=O)c2cc(C3=NOC(c4ccc(-c5nc(C)no5)nc4)C3)nc(C)n2)ccc1F (stereo not shown) | < 10 nM
Cc1cccc(CNC(=O)c2cc(C3=NO[C@H]([C@H]4CO[C@H](CO)CO4)C3)nc(C)n2)c1 | > 1000 nM
COc1ccc(CNC(=O)c2cc(C3=NO[C@@H](c4ccc(OCCO)cc4)C3)nc(C)n2)cc1 | 10 to 100 nM
COc1cc(CNC(=O)c2cc(C3=NO[C@H]([C@H]4CO[C@H](CO)CO4)C3)nc(C)n2)ccc1F | < 10 nM
Cc1nc(C(=O)NCc2ccc(F)c(Cl)c2)cc(C2=NOC(C3CCN(C(=O)CO)CC3)C2)n1 (stereo not shown) | 10 to 100 nM
COc1cc(CNC(=O)c2cc(C3=NO[C@H]([C@H]4CO[C@H](CNC(=O)[C@H](C)O)CO4)C3)nc(C)n2)ccc1F | < 10 nM
COc1cc(CNC(=O)c2cc(C3=NOC(c4cccc(CN5CCOCC5)c4)C3)nc(C)n2)ccc1F (stereo not shown) | < 10 nM
COc1cc(CNC(=O)c2cc(C3=NO[C@@H](c4ccn(C)c(=O)c4)C3)nc(C)n2)ccc1F | 100 to 1000 nM

Compound | IC50
COc1cc(CNC(=O)c2cc(C3=NO[C@@H](c4ccc(=O)n(C)c4)C3)nc(C)n2)ccc1F | 100 to 1000 nM
COc1cc(CNC(=O)c2cc(C3=NO[C@@H](c4ccc(=O)n(C5CC5)c4)C3)nc(C)n2)ccc1F | 10 to 100 nM
COc1cc(CNC(=O)c2cc(C3=NOC(C4CCN(C(=O)CC#N)CC4)C3)nc(C)n2)ccc1F (stereo not shown) [drawing 881] | 10 to 100 nM
COc1cc(CNC(=O)c2cc(C3=NO[C@H]([C@@H]4CO[C@@H](CO)CO4)C3)nc(C)n2)ccc1F | 10 to 100 nM
COc1cc(CNC(=O)c2cc(C3=NOC(c4nn[nH]n4)C3)nc(C)n2)ccc1F (stereo not shown) | > 1000 nM
COc1cc(CNC(=O)c2cc(C3=NOC(c4ccc(-c5cnco5)cn4)C3)nc(C)n2)ccc1F (stereo not shown) | < 10 nM
COc1cc(CNC(=O)c2cc(C3=NO[C@H]([C@H]4CO[C@H](C(N)=O)CO4)C3)nc(C)n2)ccc1F | < 10 nM
COc1ccc(CNC(=O)c2cc(C3=NOC(c4ccc(N5CCCCC5)cc4)C3)nc(C)n2)cc1 (stereo not shown) | 100 to 1000 nM
COc1cc(CNC(=O)c2cc(C3=NOC(CN4CCN(C(C)=O)CC4)C3)nc(C)n2)ccc1F (stereo not shown) | > 1000 nM
COc1ccc(CNC(=O)c2cc(C3=NOC(c4ccc(C(=O)O)cc4)C3)ccn2)cc1 (stereo not shown) | 10 to 100 nM
Cc1nc(C(=O)NCc2ccc(F)cc2)cc(C2=NO[C@@H]([C@@H]3CO[C@@H](CO)CO3)C2)n1 | > 1000 nM
COc1cc(CNC(=O)c2cc(C3=NOC([C@H]4CC[C@H](NC(=O)CN(C)C)CC4)C3)nc(C)n2)ccc1F (stereo partly shown) | 10 to 100 nM
COc1cc(CNC(=O)c2cc(C3=NOC([C@H]4CC[C@H](NS(C)(=O)=O)CC4)C3)nc(C)n2)ccc1F (stereo partly shown) | < 10 nM
COc1cc(CNC(=O)c2cc(C3=NOC(c4cnc5c(cnn5C)c4)C3)nc(C)n2)ccc1F (stereo not shown) | 10 to 100 nM
COc1ccc(CNC(=O)c2cc(C3=NOC(c4ccc(N(C)C)cc4)C3)nc(C)n2)cc1 (stereo not shown) | 100 to 1000 nM
COc1cc(CNC(=O)c2cc(C3=NOC(c4ccc(N(C)C)nn4)C3)nc(C)n2)ccc1F (stereo not shown) | > 1000 nM
COc1cc(CNC(=O)c2cc(C3=NOC(c4cccc(C(N)=O)c4)C3)nc(C)n2)ccc1F (stereo not shown) | < 10 nM
COc1cc(CNC(=O)c2cc(C3=NOC(C(=O)NCCO)C3)nc(C)n2)ccc1F (stereo not shown) | 100 to 1000 nM
COc1cc(CNC(=O)c2cc(C3=NOC(c4cnc(S(C)(=O)=O)cn4)C3)nc(C)n2)ccc1F (stereo not shown) | 10 to 100 nM
COc1cc(CNC(=O)c2cc(C3=NOC(c4ccc(-c5nc(C)no5)nn4)C3)nc(C)n2)ccc1F (stereo not shown) | < 10 nM
CCNC(=O)N1CCC(C2CC(c3cc(C(=O)NCc4ccc(F)c(OC)c4)nc(C)n3)=NO2)CC1 (stereo not shown) [drawing 1062] | 10 to 100 nM
COc1cc(CNC(=O)c2cc(C3=NO[C@H]([C@H]4CO[C@H](CNC(=O)N(C)C)CO4)C3)nc(C)n2)ccc1F | 10 to 100 nM
COc1cc(CNC(=O)c2cc(C3=NOC(c4ccc(S(C)(=O)=O)nn4)C3)nc(C)n2)ccc1F (stereo not shown) | 10 to 100 nM
Cc1nc(C(=O)NCc2cccc(F)c2)cc(C2=NO[C@@H]([C@H]3CO[C@H](CO)CO3)C2)n1 | > 1000 nM
